# Molecular target: T1, Interleukin-1 receptor-associated kinase 4 (Homo sapiens, UniProt Q9NWZ3)
# T1 sequence (Q9NWZ3 whole entry): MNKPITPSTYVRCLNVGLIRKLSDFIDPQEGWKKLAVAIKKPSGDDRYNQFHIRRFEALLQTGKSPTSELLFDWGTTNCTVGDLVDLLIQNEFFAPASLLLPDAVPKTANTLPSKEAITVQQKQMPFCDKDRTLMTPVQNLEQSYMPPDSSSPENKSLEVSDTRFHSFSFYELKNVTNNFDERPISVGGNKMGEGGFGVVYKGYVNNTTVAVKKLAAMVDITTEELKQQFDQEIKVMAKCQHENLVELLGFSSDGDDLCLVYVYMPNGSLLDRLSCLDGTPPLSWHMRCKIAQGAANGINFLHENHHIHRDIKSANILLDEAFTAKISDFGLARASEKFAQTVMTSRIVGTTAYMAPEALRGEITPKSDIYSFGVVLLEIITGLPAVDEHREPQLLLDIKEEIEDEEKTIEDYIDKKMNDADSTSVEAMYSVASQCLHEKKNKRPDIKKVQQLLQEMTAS
# Assay: Biochemical Assay: The biochemical assay is in a AlphaScreen format. The kinase reaction is based on the IRAK-4 phosphorylation of a biotin labeled peptide. The phosphopeptide is incubated with anti-phosphothreonine antibody as well as streptavidin- and protein A-coated beads. Binding of the protein-A coated beads to the antibody and the streptavidin beads to the peptide, leads to an energy transfer from one bead to the other, ultimately producing a luminescent/fluorescent signal.Generally, the kinase reaction is carried out at 1 nM IRAK4, 1.6 μM peptide, 10 μM ATP in reaction buffer 50 mM Hepes, 60 mM NaCl, 5 mM MgCl2, 0.25 mM MnCl2, 2 mM DTT, 0.01% BSA, 0.01% Tween-20) for 3.5 h at RT.
row,Structure (SMILES),IC50
1,CC(C)C1NC(=O)c2nn(C3CCOCC3)cc2NC(=O)c2csc(n2)-c2ccnc(c2)CCCNC1=O (stereo not given),< 10 µM
2,Cn1cc2c(n1)C(=O)NCCOCCOc1cc(ccn1)-c1cncc(c1)C(=O)N2,< 10 µM
3,O=C1NCCCOC2CCCC(CNc3cc(ccn3)-c3nc1cs3)C2 (stereo not given),> 10 µM

# The remaining lines, values ahead:
row,IC50,Structure (SMILES)
1,< 1 µM,Cn1cc2c(n1)C(=O)NCCOCCOc1cc(ccn1)-c1cc(ccn1)C(=O)N2
2,< 0.1 µM,Cn1cc2c(n1)C(=O)NCCOCCOc1cc(ccn1)-c1cc(cs1)C(=O)N2

# From ChEMBL document CHEMBL5726119, “Macrocyclic compounds as IRAK4 inhibitors for the treatment of inflammatory diseases” (2017)
